The values that follow come from patent US5686486A, “4-hydroxy-benzopyran-2-ones and 4-hydroxy-cycloalkyl[b]pyran-2-ones useful to treat retroviral infections” (priority 1995, dated 1997).

Where “and” joins values, the source holds several entries; their conditions need not be identical. Equal values may be shown once. Read-outs that look alike come from different tables or passages of the source.

The term IC50 denotes the concentration at which inhibition is half-maximal.

The test concerns the target HIV-1 protease (Human immunodeficiency virus type 1 group M subtype B, UniProt P04585). As to the kind of experiment: biochemical. To be noted: for inhibition at 0.41 µM: read-out: HIV-1 Protease % Inhib, dose 0.410 uM; for inhibition at 1.23 µM: read-out: HIV-1 Protease % Inhib, dose 1.230 uM; for inhibition at 3.7 µM: read-out: HIV-1 Protease % Inhib, dose 3.700 uM; for inhibition at 11 µM: read-out: HIV-1 Protease % Inhib, dose 11.000 uM; for inhibition at 33 µM: read-out: HIV-1 Protease % Inhib, dose 33.000 uM. A digest of the protocol:
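Percent inhibition derived from fluorescent cleavage product separated by filtration after streptavidin-bead capture of intact biotin/FITC substrate. Reaction: enzyme (10 μl, 0.1 μM stock) with substrate (20 μl, 0.2 μM stock) and compound, 1 h at room temperature in dark, pH 5.5 acetate buffer with 1.0 M NaCl and 0.05% NP-40.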

The mark [1] stands for this setting: read-out: HIV-1 Protease % Inhib, dose 1.000 uM.
The mark [2] stands for this setting: read-out: HIV-1 Protease % Inhib, dose 10.000 uM.
The mark [3] stands for this setting: read-out: HIV-1 Protease % Inhib, dose 100.000 uM.
[4] abbreviates: dose 1.000 uM, read-out: HIV-1 Protease % Inhib.
[5] abbreviates: dose 10.000 uM, read-out: HIV-1 Protease % Inhib.
[6] abbreviates: dose 100.000 uM, read-out: HIV-1 Protease % Inhib.

For the molecule `CCC(c1ccc(OCC(O)CO)cc1)c1c(O)c2ccccc2oc1=O` (stereo not drawn) [Example 100, Coumarin, 4-hydroxy-3-[1-[4-(2,3-dihydroxy)propoxyphenyl]propyl]-], the “HIV-1 Protease % Inhib” value reads like this: (dose 10.000 uM) less than 10%; (dose 100.000 uM) 40.3%. Further, the inhibition at 1 µM under setting [1] is less than 10%. Besides, the inhibition at 10 µM under setting [2] was determined as 12.3%. Besides, under setting [3], the inhibition at 100 µM is 53%.

Take `CC(c1cccc(C#N)c1)c1c(O)c2ccccc2oc1=O` (stereo not drawn) [Example 101, Coumarin, 3-[1-(3-Cyanophenyl)ethyl]-4-hydroxy-]: the inhibition at 1 µM under setting [1] is less than 10%. Moreover, the inhibition at 10 µM under setting [2] is less than 10%. Besides, under setting [3], the inhibition at 100 µM came out at 39.2%.

Take `CCC(c1cccc(OC)c1)c1c(O)c2ccccc2oc1=O` (stereo not drawn) [Example 102, Coumarin, 4-hydroxy-3-[1-(3-methoxyphenyl)propyl]-]: the “HIV-1 Protease % Inhib” value (dose 100.000 uM) was determined as 75.63%. Besides, the inhibition at 1 µM under setting [1] was less than 10%. Also, the inhibition at 10 µM under setting [2] was 24%. Also, the inhibition at 100 µM under setting [3] came out at 78.8%.

Regarding `CCC(c1cccc(O)c1)c1c(O)c2ccccc2oc1=O` (stereo not drawn) [Example 103, Coumarin, 4-hydroxy-3-[1-(3-hydroxyphenyl)propyl]-], the “HIV-1 Protease % Inhib” value (dose 100.000 uM) is 87.29% and 73.35%. Also, under setting [1], the inhibition at 1 µM was less than 10%. The inhibition at 10 µM under setting [2] was determined as 25.7%. For the same molecule, the inhibition at 100 µM under setting [3] stood at 80.9%.

Where the note is “HIV-1 Protease IC50”, `O=c1oc2ccccc2c(O)c1C(C1CC1)C1CC1` [Example 104, 3-(dicyclopropyl)methyl-4-hydroxycoumarin] returned an IC50 of 6.74 µM. For the same molecule, the inhibition at 1 µM under setting [1] worked out at 12.2%. Moreover, the inhibition at 10 µM under setting [2] was determined as 68.7%. In addition, under setting [3], the inhibition at 100 µM turned out to be 106%.

On to `CCC(c1ccccc1)c1c(O)c2ccccc2oc1=O` (stereo not drawn) [Example 105, 4-hydroxy-3-(1-phenylpropyl)-coumarin], for which the IC50 (read-out: HIV-1 Protease IC50) was 4.88 µM and 3.88 µM.

As for `CCC(=O)c1ccc(C(CC)c2c(O)c3ccccc3oc2=O)cc1` (stereo not drawn) [Example 106, Coumarin, 4-hydroxy-3-[1-(4-propionylphenyl)propyl]-], the inhibition at 1 µM under setting [1] was less than 10%. The inhibition at 10 µM under setting [2] was 11.7%. For the same molecule, the inhibition at 100 µM under setting [3] turned out to be 71%.

Consider `CCC(c1ccccc1)c1c(O)c2c(oc1=O)CCCCCC2` (stereo not drawn) [Example 108, 5,6,7,8,9,10-Hexahydro-4-hydroxy-3-(1-phenylpropyl)-2H-cycloocta[b]pyran-2-one], for which, under setting [1], the inhibition at 1 µM is 72.6%. Moreover, under setting [2], the inhibition at 10 µM came out at 95.5%. For the same molecule, under setting [3], the inhibition at 100 µM is 94.2%.

Take `CCC(c1ccccc1)c1c(O)c2c(oc1=O)CCCCC2` (stereo not drawn) [Example 110, 6,7,8,9-Tetrahydro-4-hydroxy-3-(1-phenylpropyl)-cyclohepta[b]pyran-2(5H)-one]: the inhibition at 1 µM under setting [1] came out at 16.9%. Moreover, under setting [2], the inhibition at 10 µM was 73.8%. The inhibition at 100 µM under setting [3] came to 99.9%.

Consider `O=c1oc2c(c(O)c1C(c1ccccc1)C1CC1)CCC2` (stereo not drawn) [Example 113, 3-(Cyclopropylphenylmethyl)-6,7-dihydro-4-hydroxy-cyclopenta[b]pyran-2(5H)-one], for which the inhibition at 1 µM under setting [4] was 39.6%. Also, the inhibition at 10 µM under setting [5] is 99.8%. Moreover, the inhibition at 100 µM under setting [6] turned out to be 109%.

Take `O=c1oc2c(c(O)c1C(c1ccccc1)C1CC1)CCCCCCCCCC2` (stereo not drawn) [Example 114, 3-(Cyclopropylphenylmethyl)-5,6,7,8,9,10,11,12,13,14-decahydro-4-hydroxy-2H-cyclododeca[b]pyran-2-one]: the inhibition at 1 µM under setting [4] is less than 10%. The inhibition at 10 µM under setting [5] is less than 10%. For the same molecule, the inhibition at 100 µM under setting [6] came out at 14.1%.

On to `O=c1oc2c(c(O)c1C(C1CC1)C1CC1)CCCCCC2` [Example 118, 3-(Dicyclopropylmethyl)-5,6,7,8,9,10-hexahydro-4-hydroxy-2H-cycloocta[b]pyran-2-one], for which the inhibition at 0.41 µM is 68.7%, the inhibition at 1.23 µM came to 87.9%, the inhibition at 3.7 µM came to 99% and the inhibition at 11 µM is 110%. For the same molecule, the inhibition at 33 µM was found to be 103%. Moreover, the inhibition at 100 µM under setting [3] was determined as 105%.

As for `CCC(c1ccccc1)c1c(O)c2ccc(OCCN3CCOCC3)cc2oc1=O` (stereo not drawn) [Example 141, 4-Hydroxy-7-(2-morpholin-4-yl-ethoxy)-3-(1-phenyl-propyl)-chromen-2-one], under setting [1], the inhibition at 1 µM came out at 14.2%. The inhibition at 10 µM under setting [2] was 77.4%. For the same molecule, the inhibition at 100 µM under setting [3] is 103%.

Consider `O=c1oc2ccccc2c(O)c1C1(c2ccccc2)CC1` [Example 142, 4-Hydroxy-3-(1-phenyl-cyclopropyl)-chromen-2-one], for which the inhibition at 1 µM under setting [1] is less than 10%. Further, under setting [2], the inhibition at 10 µM was 15.7%. The inhibition at 100 µM under setting [3] stood at 71.8%.

As for `CCC(c1cccc(C(=O)NC2c3ccccc3CC2O)c1)c1c(O)c2ccccc2oc1=O` (stereo not drawn) [Example 143, N-(2-Hydroxy-indan-1-yl)-3-(1-(4-hydroxy-2-oxo-2H-chromen-3-yl)-propyl)-benzamide], the inhibition at 1 µM under setting [1] was 10.8%. Moreover, the inhibition at 10 µM under setting [2] turned out to be 77.1%. Also, the inhibition at 100 µM under setting [3] stood at 92.1%.

As for `CCC(Cc1ccccc1)c1c(O)c2ccccc2oc1=O` (stereo not drawn) [Example 144, 3-(1-Benzyl-propyl)4-hydroxy-chromen-2-one], under setting [1], the inhibition at 1 µM came to 25.9%. Moreover, the inhibition at 10 µM under setting [2] is 77%. In addition, the inhibition at 100 µM under setting [3] was found to be 86%.

In the case of `O=c1oc2ccccc2c(O)c1C(CCc1ccccc1)Cc1ccccc1` (stereo not drawn) [Example 145, 3-(1-Benzyl-3-phenyl-propyl)4-hydroxy-chromen-2-one], the inhibition at 1 µM under setting [1] amounted to 37%. The inhibition at 10 µM under setting [2] stood at 81%. Further, the inhibition at 100 µM under setting [3] is 97%.

`CCCC(Cc1ccccc1)c1c(O)c2ccccc2oc1=O` (stereo not drawn) [Example 147, 3-(1 -Benzyl-butyl)-4-hydroxy-chromen-2-one]: under setting [1], the inhibition at 1 µM is 34.7%. For the same molecule, the inhibition at 10 µM under setting [2] was determined as 86.3%. Also, the inhibition at 100 µM under setting [3] came to 96.5%.

For `CCC(c1cccc(C(=O)NCc2nc3ccccc3[nH]2)c1)c1c(O)c2ccccc2oc1=O` (stereo not drawn) [Example 148, N-(1H-Benzoimidazol-2-ylmethyl)-3-(1-(4-hydroxy-2-oxo-2H-chromen-3-yl)-propyl)-benzamide], under setting [1], the inhibition at 1 µM was less than 10%. In addition, the inhibition at 10 µM under setting [2] is 57.9%. Further, the inhibition at 100 µM under setting [3] came to 93.7%.

For `CC(=O)Oc1ccc(C(C)(C)c2c(O)c3ccccc3oc2=O)cc1` [Example 150, Acetic acid 4-(1-(4-Hydroxy-2-oxo-2H-chromen-3-yl)-l-methyl-ethyl)-phenylester], the inhibition at 1 µM under setting [1] is less than 10%. Besides, under setting [2], the inhibition at 10 µM was determined as 62.4%. Under setting [3], the inhibition at 100 µM came to 93%.

For the molecule `CCC(c1ccccc1)c1c(O)c2ccc(OCCOCCOC)cc2oc1=O` (stereo not drawn) [Example 151, 4-Hydroxy-7-(2-(2-methoxy-ethoxy)-ethoxy)-3-(1-phenyl-propyl)-chromen-2-one], the inhibition at 1 µM under setting [1] worked out at 29.1%. In addition, the inhibition at 10 µM under setting [2] came to 82.8%. In addition, the inhibition at 100 µM under setting [3] was 92.4%.

With `Cc1cc(C)c2c(c1)C(c1c(O)c3ccccc3oc1=O)CCO2` (stereo not drawn) [Example 153, 4-Hydroxy-6',8'-Dimethyl-3',4'-dihydro-2'H-[3',4']bicromenyl-2-one], the “HIV-1 Protease % Inhib” value (dose 100.000 uM) is 79.57% and 115.36%. In addition, the inhibition at 1 µM under setting [1] is less than 10%. In addition, the inhibition at 10 µM under setting [2] was determined as 34%.

For the molecule `CCC(CCc1ccccc1)c1c(O)c2ccccc2oc1=O` (stereo not drawn) [Example 155, 3-(1-Ethyl-3-phenyl-propyl)4-hydroxy-chromen-2-one], the inhibition at 1 µM under setting [1] was 15.4%. Further, the inhibition at 10 µM under setting [2] amounted to 74.9%. Besides, the inhibition at 100 µM under setting [3] stood at 91.9%.

`CCC(CCCc1ccccc1)c1c(O)c2ccccc2oc1=O` (stereo not drawn) [Example 156, 3-(1-Ethyl4-phenyl-butyl)-4-hydroxy-chromen-2-one]: the inhibition at 1 µM under setting [1] turned out to be 17.1%. Besides, the inhibition at 10 µM under setting [2] came to 33.6%. Further, the inhibition at 100 µM under setting [3] amounted to 63.7%.

Consider `COC(=O)C(C(=O)OC)C(c1ccccc1)c1c(O)c2ccccc2oc1=O` (stereo not drawn) [Example 157, 2-((4-Hydroxy-2-oxo-2H-chromen-3-yl)-phenyl-methyl)-malonic acid dimethyl ester], for which the inhibition at 1 µM under setting [1] was less than 10%. Moreover, under setting [2], the inhibition at 10 µM was less than 10%. Also, the inhibition at 100 µM under setting [3] worked out at 64%.

As to `O=c1oc2ccccc2c(O)c1C1CCOc2ccccc21` (stereo not drawn) [Example 158, 4-Hydroxy-3',4'-dihydro-2'H-[3,4]bichromenyl-2-one], under setting [1], the inhibition at 1 µM was less than 10%. Further, the inhibition at 10 µM under setting [2] came to 26.7%. Further, under setting [3], the inhibition at 100 µM is 93.4%.

As for `O=c1oc2ccccc2c(O)c1C(CCO)c1ccccc1` (stereo not drawn) [Example 160, 4-Hydroxy-3-(3-hydroxy-1-phenyl-propyl)-chromen-2-one], the inhibition at 0.41 µM was less than 10%, the inhibition at 1.23 µM is less than 10%, the inhibition at 3.7 µM is less than 10% and the inhibition at 11 µM worked out at 14.2%. The inhibition at 33 µM came out at 40.4%. Further, the inhibition at 100 µM under setting [3] amounted to 82.6%.

As to `COc1ccc2c(O)c(C(c3cccc(NC(=O)OCc4ccccc4)c3)C3CC3)c(=O)oc2c1` (stereo not drawn) [Example 166, Carbamic acid, [3-[cyclopropyl(4-hydroxy-7-methoxy-2-oxo-2H-1-benzopyran-3-yl)methyl]phenyl]-, phenylmethyl ester], the inhibition at 0.41 µM is less than 10%, the inhibition at 1.23 µM turned out to be 13.2%, the inhibition at 3.7 µM was determined as 33.4% and the inhibition at 11 µM was found to be 58.9%. Also, the inhibition at 33 µM was 89.1%. Further, the inhibition at 100 µM under setting [3] stood at 100%.
